Data published in PubChem BioAssay (NCI).
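Grown in 96-well plates, cells were treated for 48 hours with each compound at five concentrations. Insufficient inhibition: endpoint recorded as highest concentration tested. At the GI50, growth is halved. TGI is the concentration that stops growth completely.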

Experiments:
Experiment in all cases: inhibition of tumour cell growth, NCI panel, 48 h
HCT-116 colon = system: HCT-116 colon
SF-268 CNS = system: SF-268 CNS
BT-549 breast = system: BT-549 breast
CCRF-CEM leukemia = system: CCRF-CEM leukemia
MOLT-4 leukemia = system: MOLT-4 leukemia
EKVX NSCLC = system: EKVX NSCLC
DU-145 prostate = system: DU-145 prostate
HCC-2998 colon = system: HCC-2998 colon
ACHN renal = system: ACHN renal
SF-539 CNS = system: SF-539 CNS
SR leukemia = system: SR leukemia
UACC-62 melanoma = system: UACC-62 melanoma
HT29 colon = system: HT29 colon
SK-MEL-2 melanoma = system: SK-MEL-2 melanoma
A549 NSCLC = system: A549 NSCLC
MDA-MB-231 breast = system: MDA-MB-231 breast
SNB-75 CNS = system: SNB-75 CNS
SK-MEL-5 melanoma = system: SK-MEL-5 melanoma
SNB-19 CNS = system: SNB-19 CNS
SK-OV-3 ovarian = system: SK-OV-3 ovarian
NCI-H23 lung = system: NCI-H23 lung
OVCAR-8 ovarian = system: OVCAR-8 ovarian
UO-31 renal = system: UO-31 renal
NCI-H226 lung = system: NCI-H226 lung
MDA-MB-435 = system: MDA-MB-435
LOX IMVI melanoma = system: LOX IMVI melanoma
UACC-257 melanoma = system: UACC-257 melanoma
PC-3 prostate = system: PC-3 prostate
TK-10 renal = system: TK-10 renal
HS 578T breast = system: HS 578T breast
NCI-H460 lung = system: NCI-H460 lung
IGROV1 ovarian = system: IGROV1 ovarian
HCT-15 colon = system: HCT-15 colon
SN12C renal = system: SN12C renal
OVCAR-3 ovarian = system: OVCAR-3 ovarian
RXF 393 renal = system: RXF 393 renal
HL-60(TB) leukemia = system: HL-60(TB) leukemia
SW-620 colon = system: SW-620 colon
M14 melanoma = system: M14 melanoma
KM12 colon = system: KM12 colon
NCI/ADR-RES ovarian = system: NCI/ADR-RES ovarian
MALME-3M melanoma = system: MALME-3M melanoma
MCF7 breast = system: MCF7 breast
K-562 leukemia = system: K-562 leukemia
A498 renal = system: A498 renal
SK-MEL-28 melanoma = system: SK-MEL-28 melanoma
T-47D breast = system: T-47D breast
OVCAR-5 ovarian = system: OVCAR-5 ovarian
SF-295 CNS = system: SF-295 CNS
OVCAR-4 ovarian = system: OVCAR-4 ovarian
HOP-92 NSCLC = system: HOP-92 NSCLC
CAKI-1 renal = system: CAKI-1 renal

## COc1cc(-c2ccc(-c3ccc(C(=N)N)cc3)s2)cc(OC)c1OC
HCT-116 colon
  GI50: 1.56 µM
  TGI: 3.19 µM
SF-268 CNS
  GI50: 2.41 µM
  TGI: 7.36 µM
BT-549 breast
  GI50: 2.69 µM
  TGI: 9.4 µM
CCRF-CEM leukemia
  GI50: 2.93 µM
  TGI: 11.7 µM
MOLT-4 leukemia
  GI50: 2.2 µM
  TGI: 6.15 µM
EKVX NSCLC
  GI50: 4.69 µM
  TGI: 19.7 µM
DU-145 prostate
  GI50: 2.41 µM
  TGI: 6.09 µM
HCC-2998 colon
  GI50: 1.79 µM
  TGI: 3.24 µM
ACHN renal
  GI50: 1.73 µM
  TGI: 3.19 µM
SF-539 CNS
  GI50: 1.62 µM
  TGI: 3.03 µM
SR leukemia
  GI50: 2.08 µM
  TGI: 5.43 µM
UACC-62 melanoma
  GI50: 2.77 µM
  TGI: 10.3 µM
HT29 colon
  GI50: 1.5 µM
  TGI: 5.56 µM
SK-MEL-2 melanoma
  GI50: 1.91 µM
  TGI: 3.73 µM
A549 NSCLC
  GI50: 3.63 µM
  TGI: 14.7 µM
MDA-MB-231 breast
  GI50: 1.62 µM
  TGI: 3.26 µM
SNB-75 CNS
  GI50: 1.6 µM
  TGI: 6.19 µM
SK-MEL-5 melanoma
  GI50: 1.72 µM
  TGI: 3.1 µM
SNB-19 CNS
  GI50: 2.36 µM
  TGI: 6.56 µM
SK-OV-3 ovarian
  GI50: 2.45 µM
  TGI: 6.65 µM
NCI-H23 lung
  GI50: 2.25 µM
  TGI: 5.4 µM
OVCAR-8 ovarian
  GI50: 2.34 µM
  TGI: 5.87 µM
UO-31 renal
  GI50: 3.37 µM
  TGI: 14.8 µM
NCI-H226 lung
  GI50: 2.16 µM
  TGI: 6.58 µM
MDA-MB-435
  GI50: 1.57 µM
  TGI: 3.01 µM
LOX IMVI melanoma
  GI50: 1.72 µM
  TGI: 3.1 µM
UACC-257 melanoma
  GI50: 2.02 µM
  TGI: 4.37 µM
PC-3 prostate
  GI50: 2.94 µM
  TGI: 11.2 µM
TK-10 renal
  GI50: 2.05 µM
  TGI: 4.02 µM
HS 578T breast
  GI50: 1.75 µM
  TGI: 4.16 µM
NCI-H460 lung
  GI50: 1.83 µM
  TGI: 3.47 µM
IGROV1 ovarian
  GI50: 5 µM
  TGI: 18.5 µM
HCT-15 colon
  GI50: 2.25 µM
  TGI: 5.29 µM
SN12C renal
  GI50: 4.5 µM
  TGI: 18.8 µM
OVCAR-3 ovarian
  GI50: 2.01 µM
  TGI: 3.87 µM
RXF 393 renal
  GI50: 2.1 µM
  TGI: 4.08 µM
HL-60(TB) leukemia
  GI50: 2.13 µM
  TGI: 4.75 µM
SW-620 colon
  GI50: 1.73 µM
  TGI: 3.31 µM
M14 melanoma
  GI50: 1.62 µM
  TGI: 3.36 µM
KM12 colon
  GI50: 1.67 µM
  TGI: 3.35 µM
NCI/ADR-RES ovarian
  GI50: 7.88 µM
  TGI: 23.6 µM
MALME-3M melanoma
  GI50: 1.46 µM
  TGI: 2.9 µM
MCF7 breast
  GI50: 1.65 µM
  TGI: 4.36 µM
K-562 leukemia
  GI50: 2.63 µM
  TGI: 10.2 µM
A498 renal
  GI50: 0.215 µM
  TGI: 3.96 µM
SK-MEL-28 melanoma
  GI50: 1.6 µM
  TGI: 3.05 µM
T-47D breast
  GI50: 1.9 µM
  TGI: 4.92 µM
OVCAR-5 ovarian
  GI50: 3.46 µM
  TGI: 13.8 µM
SF-295 CNS
  GI50: 1.77 µM
  TGI: 3.45 µM
OVCAR-4 ovarian
  GI50: 1.76 µM
  TGI: 4.03 µM
HOP-92 NSCLC
  GI50: 1.29 µM
  TGI: 3.72 µM
CAKI-1 renal
  GI50: 1.72 µM
  TGI: 3.22 µM
